Each structure is given as a SMILES string.

Among the data in patent US10940139B2, “Compounds that interact with the Ras superfamily for the treatment of cancers, inflammatory diseases, rasopathies, and fibrotic disease” (Shy Therapeutics LLC, priority 2017, dated 2021) are inhibition values, retold here.

One assay concerns the target KRas G12D mutant protein (Homo sapiens (Human), UniProt P01116, G12D). Briefly: Ras GTP binding domain inhibition assay (labeled GTP). Conditions: at 20 μM; read-out: KRas G12D % Inh.
Assay [1] addresses KRas G12D/Q61H double mutant (Homo sapiens (Human), UniProt P01116, G12D/Q61H). The assay is described as above. The following applies: at 20 μM; read-out: KRas G12D Q61H % Inh. In outline:
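His-tagged KRas protein (3-10 μg/ml) was captured overnight at 4° C on nickel-coated wells in 50 mM Tris pH 7.5, 1 mM MgCl2, 1 mM DTT. Bound labeled GTP was read by fluorescence after washing.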

In a further assay the target is Rac-1 (Homo sapiens (Human), UniProt P63000). Briefly: Rac inhibition assay (labeled GTP). It counts as binding. Conditions: read-out: Rac-1 % Inh.
The target of another assay is Rho-A (Homo sapiens (Human), UniProt P61586). The assay can be described thus: Rho inhibition assay (labeled GTP). Format: binding. The following applies: read-out: Rho-A % Inh.
Sequence of Rho-A (P61586 whole entry): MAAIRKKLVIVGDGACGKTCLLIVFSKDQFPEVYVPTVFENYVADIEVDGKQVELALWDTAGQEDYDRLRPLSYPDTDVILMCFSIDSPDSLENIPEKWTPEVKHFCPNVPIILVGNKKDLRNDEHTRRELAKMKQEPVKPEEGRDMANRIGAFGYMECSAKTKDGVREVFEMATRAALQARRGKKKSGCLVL

Sequence of KRas G12D/Q61H double mutant (P01116-2 other isoform, or with tags, fused parts or gaps G12D/Q61H): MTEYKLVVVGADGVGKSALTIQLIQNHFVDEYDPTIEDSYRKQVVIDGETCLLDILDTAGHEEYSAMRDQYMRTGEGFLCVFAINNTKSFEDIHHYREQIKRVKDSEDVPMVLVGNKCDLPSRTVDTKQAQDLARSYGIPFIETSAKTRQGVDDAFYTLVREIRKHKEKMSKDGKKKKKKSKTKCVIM
Sequence of KRas G12D mutant protein (P01116-2 other isoform, or with tags, fused parts or gaps G12D): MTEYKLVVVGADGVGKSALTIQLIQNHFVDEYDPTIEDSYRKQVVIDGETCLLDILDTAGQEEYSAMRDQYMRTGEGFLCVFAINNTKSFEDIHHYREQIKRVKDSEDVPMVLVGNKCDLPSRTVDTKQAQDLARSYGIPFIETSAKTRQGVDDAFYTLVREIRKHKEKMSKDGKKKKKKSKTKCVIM

For the compound `O=C(c1csc2c(O)nc(-c3ccccn3)nc12)N1CCC(c2cccc(O)c2)C1` (centres unmarked) [drawing 3712], the inhibition at 20 µM (at KRas G12D mutant protein; in assay [1]; at Rac-1; at Rho-A) was 76 to 100% in each case.
For `COCCNc1nc(-c2cn(C)cn2)nc2sc(-c3ccncc3)c(-c3ccccc3)c12` [drawing 3848], the inhibition at 20 µM at KRas G12D mutant protein is 51 to 75%; in assay [1], 76 to 100%; at Rac-1, 76 to 100%; at Rho-A, 76 to 100%.
As for `Oc1nc(-c2ccccn2)nc2scc(Br)c12` [drawing 3623], the inhibition at 20 µM lay within 51 to 75% at KRas G12D mutant protein, 51 to 75% in assay [1], 76 to 100% on Rac-1 and 76 to 100% at Rho-A.
Turning to `O=S1(=O)CCN(Cc2cccc(-c3csc4c(O)nc(-c5ccccn5)nc34)c2)CC1` [drawing 3736], the inhibition at 20 µM fell in the range of 51 to 75% at KRas G12D mutant protein, 51 to 75% in assay [1], 76 to 100% on Rac-1 and 76 to 100% on Rho-A.
In the case of `O=c1[nH]c(-c2ccccn2)nc2c([C@@H]3O[C@H](CO)[C@@H](O)[C@H]3O)csc12` [drawing 3845], the inhibition at 20 µM was in the range of 25 to 50% at KRas G12D mutant protein, 25 to 50% in assay [1], 51 to 75% at Rac-1 and 51 to 75% on Rho-A.
Consider `COc1cccc(CN2CCN(C(=O)c3csc4c(O)nc(-c5ccccn5)nc34)CC2)c1` [drawing 3652], for which the inhibition at 20 µM lay in the range of 76 to 100% at KRas G12D mutant protein, 25 to 50% in assay [1], 76 to 100% at Rac-1 and 76 to 100% on Rho-A.
As for `Oc1nc(-c2ccccn2)nc2c(-c3ccsc3)csc12` [drawing 3747], the inhibition at 20 µM lay in the range of 51 to 75% at KRas G12D mutant protein, 25 to 50% in assay [1], 76 to 100% at Rac-1 and 51 to 75% on Rho-A.
For the compound `Oc1nc(-c2ccccn2)nc2c(C3CCC3)csc12` [drawing 3797], the inhibition at 20 µM lay within 51 to 75% at KRas G12D mutant protein, 51 to 75% in assay [1], 76 to 100% on Rac-1 and 76 to 100% at Rho-A.
Regarding `COCCNc1nc(-c2ccccn2)nc2c1c(-c1ccccc1)nn2-c1ccccn1` [drawing 3856], the inhibition at 20 µM on KRas G12D mutant protein was 51 to 75%; in assay [1] it was 51 to 75%; on Rac-1, 76 to 100%; on Rho-A, 76 to 100%.
Turning to `COc1cnc(-c2cn(C)cn2)nc1O` [drawing 3815], the inhibition at 20 µM on KRas G12D mutant protein lay in the range of 51 to 75%; in assay [1] it was 51 to 75%; at Rac-1, 76 to 100%; on Rho-A, 76 to 100%.
For the compound `COc1cnc(-c2cnc[nH]2)nc1O` [drawing 3834], the inhibition at 20 µM on KRas G12D mutant protein is 51 to 75%; in assay [1], 51 to 75%; at Rac-1, 76 to 100%; on Rho-A, 76 to 100%.
With `Oc1nc(-c2ccccn2)nc2c1c(-c1ccccc1)nn2-c1ccccn1` [drawing 3857], the inhibition at 20 µM (at KRas G12D mutant protein; in assay [1]; at Rac-1; at Rho-A) was 51 to 75% throughout.
As for `O=C(c1cc2nc(-c3ccccn3)nc(O)c2s1)N1CCN(c2ccccc2)CC1` [drawing 3713], the inhibition at 20 µM fell in the range of 51 to 75% on KRas G12D mutant protein, 51 to 75% in assay [1], 76 to 100% at Rac-1 and 76 to 100% on Rho-A.
On to `Oc1nc(-c2ccccn2)nc2sc3c(c12)CCCNC3` [drawing 3724], for which the inhibition at 20 µM lay within 51 to 75% at KRas G12D mutant protein, 25 to 50% in assay [1], 76 to 100% on Rac-1 and 51 to 75% at Rho-A.
For `Cc1nn(C(C)C)cc1-c1csc2c(O)nc(-c3ccccn3)nc12` [drawing 3825], the inhibition at 20 µM lay in the range of 51 to 75% at KRas G12D mutant protein, 51 to 75% in assay [1], 76 to 100% on Rac-1 and 76 to 100% on Rho-A.
As to `COc1nc(-c2ccccn2)nc2c(C3CCCC3)csc12` [drawing 3789], the inhibition at 20 µM on KRas G12D mutant protein was in the range of 25 to 50%; in assay [1], 51 to 75%; on Rac-1, 76 to 100%; at Rho-A, 51 to 75%.
As to `OCC1(c2ccc(-c3nc(-c4ccccn4)nc(O)c3Oc3ccccc3)cc2)CC1` [drawing 3852], the inhibition at 20 µM at KRas G12D mutant protein was in the range of 25 to 50%; in assay [1], 51 to 75%; on Rac-1, 51 to 75%; on Rho-A it was 76 to 100%.
Consider `CC(C)Oc1cnc(-c2ccccn2)nc1O` [drawing 3800], for which the inhibition at 20 µM lay within 51 to 75% on KRas G12D mutant protein, 51 to 75% in assay [1], 76 to 100% on Rac-1 and 76 to 100% on Rho-A.
For the compound `Oc1nc(-c2ccccn2)nc(Oc2cccc(C(F)(F)F)c2)c1O` [drawing 3876], the inhibition at 20 µM (at KRas G12D mutant protein; in assay [1]; on Rac-1; on Rho-A) was 51 to 75% in each case.
Regarding `Oc1nc(-c2ccccn2)nc2c(-c3ccccc3F)csc12` [drawing 3740], the inhibition at 20 µM at KRas G12D mutant protein was 51 to 75%; in assay [1], 51 to 75%; at Rac-1, 76 to 100%; on Rho-A, 76 to 100%.
In the case of `Oc1nc(-c2ccccn2)nc2c(-c3ccc(OC(F)F)cc3F)csc12` [drawing 3748], the inhibition at 20 µM at KRas G12D mutant protein was in the range of 51 to 75%; in assay [1], 51 to 75%; at Rac-1 it was 76 to 100%; at Rho-A, 76 to 100%.
In the case of `Oc1nc(-c2ccccn2)nc2c(-c3cccc(C(F)(F)F)c3)csc12` [drawing 3745], the inhibition at 20 µM on KRas G12D mutant protein is 51 to 75%; in assay [1] it was 25 to 50%; on Rac-1, 51 to 75%; on Rho-A, 25 to 50%.
With `Oc1nc(-c2ccccn2)nc2c(-c3cccc4c3OCO4)csc12` [drawing 3721], the inhibition at 20 µM was 25 to 50% at KRas G12D mutant protein, 51 to 75% in assay [1], 51 to 75% on Rac-1 and 51 to 75% at Rho-A.
In the case of `Cc1cnc(-c2ccccn2)nc1NC(=O)C1CCCc2cc(C#N)ccc21` (centres unmarked) [drawing 3699], the inhibition at 20 µM on KRas G12D mutant protein was in the range of 25 to 50%; in assay [1], 51 to 75%; at Rac-1, 76 to 100%; at Rho-A it was 76 to 100%.
Consider `O=C(CCc1nn[nH]n1)Nc1nc(-c2ccccn2)nc2sccc12` [drawing 3762], for which the inhibition at 20 µM on KRas G12D mutant protein is 51 to 75%; in assay [1], 51 to 75%; at Rac-1 it was 76 to 100%; at Rho-A it was 76 to 100%.
As to `COc1ccccc1-c1csc2c(O)nc(-c3ccccn3)nc12` [drawing 3742], the inhibition at 20 µM on KRas G12D mutant protein lay in the range of 51 to 75%; in assay [1] it was 25 to 50%; on Rac-1, 76 to 100%; on Rho-A, 51 to 75%.
`Cc1sc2c(O)nc(-c3ccccn3)nc2c1-c1ccccc1` [drawing 3777]: the inhibition at 20 µM (at KRas G12D mutant protein; in assay [1]; on Rac-1; on Rho-A) was 51 to 75% throughout.
For the compound `Oc1nc(-c2ccccn2)nc2c(-c3ccc(F)cc3F)csc12` [drawing 3743], the inhibition at 20 µM (on KRas G12D mutant protein; in assay [1]; on Rac-1; at Rho-A) was 51 to 75% throughout.
Turning to `O=C(CCc1cncnc1)Nc1nc(-c2ccccn2)nc2sccc12` [drawing 3763], the inhibition at 20 µM is 51 to 75% at KRas G12D mutant protein, 51 to 75% in assay [1], 76 to 100% at Rac-1 and 76 to 100% at Rho-A.
As for `Oc1nc(-c2ccccn2)nc2c(-c3cc(F)cc(F)c3)csc12` [drawing 3772], the inhibition at 20 µM (on KRas G12D mutant protein; in assay [1]; on Rac-1; on Rho-A) was 51 to 75% throughout.
On to `COc1nc(-c2ccccn2)nc2c1c(-c1ccccc1)nn2-c1ccccn1` [drawing 3858], for which the inhibition at 20 µM at KRas G12D mutant protein was in the range of 51 to 75%; in assay [1], 51 to 75%; on Rac-1 it was 76 to 100%; at Rho-A, 76 to 100%.
For the compound `CC1CN(c2ccccc2)CCN1C(=O)c1csc2c(O)nc(-c3ccccn3)nc12` (centres unmarked) [drawing 3650], the inhibition at 20 µM lay within 76 to 100% at KRas G12D mutant protein, 51 to 75% in assay [1], 76 to 100% at Rac-1 and 76 to 100% at Rho-A.
As for `COCC(C)Nc1nc(-c2ccccn2)nc2sc(-c3ccncc3)c(-c3ccccc3)c12` (centres unmarked) [drawing 3859], the inhibition at 20 µM was in the range of 25 to 50% at KRas G12D mutant protein, 51 to 75% in assay [1], 51 to 75% at Rac-1 and 51 to 75% on Rho-A.
As to `N#Cc1ccc(COCC(=O)Nc2nc(-c3ccccn3)nc3sccc23)cc1` [drawing 3688], the inhibition at 20 µM on KRas G12D mutant protein was in the range of 76 to 100%; in assay [1], 25 to 50%; at Rac-1, 76 to 100%; on Rho-A it was 76 to 100%.
Turning to `Oc1nc(-c2ccccn2)nc2cc(-c3ccncc3)sc12` [drawing 3879], the inhibition at 20 µM at KRas G12D mutant protein lay in the range of 51 to 75%; in assay [1], 51 to 75%; on Rac-1, 25 to 50%; on Rho-A it was 51 to 75%.
Consider `Cn1cnc(-c2nc(O)c3scc(-c4cccc(OC(F)(F)F)c4)c3n2)c1` [drawing 3924], for which the inhibition at 20 µM at KRas G12D mutant protein, on Rac-1 and on Rho-A was 25 to 50% throughout.
